According to patent US6313153A, “Compositions and methods for treating nephritis and inhibiting TGF -β related conditions using pyridylacrylamide derivatives” (Tsumura & Co., priority 1997, dated 2001):

Test system: anti-GBM nephritic mice
Assay: anti-GBM nephritic mice: proteinuria, serum cholesterol, blood urea nitrogen and serum creatinine;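 for Proteinuria 10th day: minus not effective plus trend double p<0.05 triple p<0.01 quadruple p<0.001 improvement vs control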;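 for Proteinuria 5th day: minus not effective plus trend double p<0.05 triple p<0.01 quadruple p<0.001 improvement vs control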;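 for Serum Parameter BUN (blood urea nitrogen): minus not effective plus trend double p<0.05 triple p<0.01 quadruple p<0.001 improvement vs control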;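 for Serum Parameter S-Ch (serum cholesterol): minus not effective plus trend double p<0.05 triple p<0.01 quadruple p<0.001 improvement vs control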
Type: in vivo, BALB/c mice
Conditions: for Total Evaluation: 3 × (number of + in proteinuria) + (number of + in serum parameter); for Proteinuria 5th day: 5th day from intravenous injection of anti-GBM serum; for Proteinuria 5th day / Proteinuria 10th day / Serum Parameter BUN (blood urea nitrogen) / Serum Parameter S-Ch (serum cholesterol) / Serum Parameter S-Cr (serum creatinine): oral; for Proteinuria 10th day: 10th day from intravenous injection of anti-GBM serum; for Serum Parameter BUN (blood urea nitrogen) / Serum Parameter S-Ch (serum cholesterol) / Serum Parameter S-Cr (serum creatinine): 11th day
Protocol: BALB/c mice (5 weeks old, purchased from Nippon Charles Liver) were quarantined and adapted for about 1 week before subjecting to experiments. These mice were divided into several groups for the experiments so that average body weights and standard deviations were almost identical in all groups. Mouse anti-GBM (glomerular basement membrane) nephritis was caused by immunizing the mice with rabbit γ-globulin (1 mg) with Freund's complete adjuvant and intravenously injecting rabbit anti-mouse GBM serum on the fifth day from the immunization. Each compound tested was forcedly orally administered via an oral sonde almost simultaneously with the intravenous injection of the anti-GBM serum. On the 5th and 10th days from the intravenous injection, urine was taken by a plastic metabolic cage and proteinuria was measured (Ohtsuka Tonein TP2). On the 11th day, blood was taken by cutting the carotid and serum cholesterol (S--Ch), blood urea nitrogen (BUN) and serum creatinine (S--Cr) were measured by Toshiba TBA-380 autoanalyzer.

SMILES	Total Evaluation	Proteinuria 5th day	Proteinuria 10th day	Serum Parameter BUN (blood urea nitrogen)	Serum Parameter S-Ch (serum cholesterol)	Serum Parameter S-Cr (serum creatinine)
COc1ccc(C(=O)CN(C)C(=O)/C=C/c2cccnc2)cc1OC [Compound 155, (E) -N-[2-(3,4-dimethoxyphenyl)-2-oxoethyl]-N-methyl-3-(3-pyridyl)-2-propenoicacid amide]	28	++++	++++	+	+++	-
O=C(/C=C/c1cccnc1)NCCc1cccc(OCC(=O)NC2CCCC2)c1 [Compound 116]	10	+	+	++	+	+
COc1ccc(C(CN(C)C(=O)/C=C/c2cccnc2)=NO)cc1OC [Compound 156, (E)-N-[2-(3,4-dimethoxyphenyl)-2-(hydroxyimino)ethyl]-N-methyl-3-(3-pyridyl)-2-propenoic acid amide]	7	+	+	-	+	-
CN(CCc1ccc(O)c(O)c1)C(=O)/C=C/c1cccnc1 [Compound 85, (E)-N-(3,4-dihydroxyphenethyl)-N-methyl-3-(3-pyridyl)-2-propenoic acid amide]	21	+++	+++	+	++	-
O=C(/C=C/c1cccnc1)NCCc1ccccc1O [Compound 38]	19	++	+++	+	++	+
COc1cc(C(=O)CN(C)C(=O)/C=C/c2cccnc2)ccc1O [Compound 162, (E)-N-methyl-N-(3-methoxy-4-hydroxyphenacyl)-3-(3-pyridyl)-2-propenoic acid amide]	13	+++	+	-	+	-
CCOC(=O)COc1ccc(CN(C)C(=O)/C=C/c2cccnc2)cc1 [Compound 95]	9	+	+	++	+	-
COc1cccc(CNC(=O)/C=C/c2cccnc2)c1 [Compound 42]	9	+	+	+	-	++
O=C(/C=C/c1cccnc1)NCCc1ccc(O)cc1 [Compound 71]	17	+	+++	++	-	++
